Data published in PubChem BioAssay AID463203 (Broad Institute, 2010).
Activity calls are given as the source filed them.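 The calls were made as follows: active = more than half of replicate measurements showing over 20% loss of kinase signal relative to plate controls; inconclusive = some but at most half of replicates over 20% loss; inactive = no replicate over 20% signal loss.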

Biological target: Glycogen synthase kinase-3 alpha (Homo sapiens) (UniProt P49840)
Test: concentration-response blocking of human GSK3A – biochemical, luminescence, cell-free homogeneous, retest, dose response (AID 463203)
Conditions: GSK-3 alpha enzyme, ADP-Glo luminescence, 60 min

Glycogen synthase kinase-3 alpha (Homo sapiens), sequence (P49840 whole entry, looked up): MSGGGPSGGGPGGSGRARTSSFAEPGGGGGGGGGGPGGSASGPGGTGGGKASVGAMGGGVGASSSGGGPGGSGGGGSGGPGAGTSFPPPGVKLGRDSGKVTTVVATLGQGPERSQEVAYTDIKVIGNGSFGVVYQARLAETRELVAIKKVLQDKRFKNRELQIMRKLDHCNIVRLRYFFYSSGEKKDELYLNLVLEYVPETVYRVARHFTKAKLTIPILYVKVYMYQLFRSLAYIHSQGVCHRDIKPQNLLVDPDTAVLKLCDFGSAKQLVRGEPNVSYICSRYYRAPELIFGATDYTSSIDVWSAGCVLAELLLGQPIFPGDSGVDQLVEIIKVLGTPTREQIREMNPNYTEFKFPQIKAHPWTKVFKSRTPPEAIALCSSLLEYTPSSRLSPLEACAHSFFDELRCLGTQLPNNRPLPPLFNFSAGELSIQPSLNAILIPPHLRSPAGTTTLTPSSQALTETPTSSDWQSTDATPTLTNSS

Compound	AC50
O=[N+]([O-])c1cc(S(=O)(=O)N2CCCC2)ccc1NCCCN1CCOCC1	> 30 µM (inactive)
CCOC(=O)N1CCc2c(sc3nc4n(c(=O)c23)N=C(c2ccc(OC)cc2)CS4)C1	> 30 µM (inactive)
S=c1sc2ccccc2n1CCc1ccncc1	4.51 µM
Cc1csc(NC(=O)C2CCCN2C(=O)OCC(C)C)n1 (stereo not given)	> 30 µM (inactive)
CCOC(=O)CSc1nc(C)[nH]c1[N+](=O)[O-]	> 30 µM (inactive)
CCC(C)[C@H](NC(=O)NCc1ccc(Cl)cc1)C(=O)OC (stereo not given in full)	> 30 µM (inactive)
COC(=O)CCCNc1ncccc1[N+](=O)[O-]	> 30 µM (inactive)
Cc1ccc2oc(=O)c3cnn(CC(=O)N4CCCCC4C)c3c2c1 (stereo not given)	> 30 µM (inactive)
C[C@H](NC(=O)c1nc[nH]c1C(=O)NC1CCN(C(=O)OC(C)(C)C)CC1)C(=O)OC(C)(C)C	31.3 µM
CC12CCC(C(=O)Nc3ncc([N+](=O)[O-])s3)(OC1=O)C2(C)C (stereo not given)	> 30 µM (inactive)
CC(C)NC(=O)c1sc2nc3c(c(-c4cccs4)c2c1N)CN(C)CC3	> 30 µM (inactive)
Cc1ccc(Cc2c(C)nc3nc(SCC(=O)NCCCN4CCCCCC4)nn3c2C)cc1	> 30 µM (inactive)
Cc1ccc2oc(=O)c3cnn(CC(=O)N4CCN(c5ccccc5)CC4)c3c2c1	> 30 µM (inactive)
O=C(NC1CCCC1)c1cccc(NC(=O)c2ccco2)c1	> 30 µM (inactive)
Cc1cccc(NC(=O)CSc2nnc([C@@H](N)Cc3c[nH]c4ccccc34)o2)c1C	> 30 µM (inactive)
COc1ccc(NC(=O)c2nnn(Cc3ccc(SC)cc3)c2N)c(OC)c1	> 30 µM (inactive)
Clc1ccc(C2=Nn3c(nnc3-c3cccnc3)SC2)s1	> 30 µM (inactive)
O=C(Oc1cccc(NC(=O)c2ccco2)c1)c1cccc(S(=O)(=O)N2CCCCC2)c1	> 30 µM (inactive)
COc1ccc(CCNc2ccc(S(=O)(=O)N3CCCC3)cc2[N+](=O)[O-])cc1	> 30 µM (inactive)
Cc1nc(NC(=O)c2ccc(Br)o2)sc1C	> 30 µM (inactive)

Compound	AC50
Oc1ccc(-c2nnc(-c3ccccc3)c(-c3ccccc3)n2)cc1	> 30 µM (inactive)
COc1cc(/C=C2\S/C(=N/S(=O)(=O)Cc3ccccc3)NC2=O)c([N+](=O)[O-])cc1OC	> 30 µM (inactive)
CCCOC(=O)c1[nH]c2c(c1C)C(=O)CC(c1cc(OC)c(OC)c(OC)c1)C2 (stereo not given)	> 30 µM (inactive)
CCOC(=O)C1CCCN(Cc2sccc2C)C1 (stereo not given)	> 30 µM (inactive)
CCCOc1ccc(-c2nnc(N)s2)cc1	> 30 µM (inactive)
O=C(Nc1nc2c(s1)CCCC2)c1ccc(Br)o1	> 30 µM (inactive)
CC(OC(=O)Cc1c[nH]c2ccccc12)C(=O)N(C)c1ccccc1 (stereo not given)	> 30 µM (inactive)
O=c1[nH]c2c(s1)C(c1ccc(O)cc1)C1C3CCC(C3)C1S2 (stereo not given)	0.649 µM
Cc1cccc(C)c1OCC(=O)N=Nc1c(O)[nH]c2ccc(Br)cc12	> 30 µM (inactive)
CN1/C(=C\C=C(C#N)C#N)C(C)(C)c2ccccc21	> 30 µM (inactive)
COc1ccc(OCC(=O)NCCCn2ccnc2)cc1	> 30 µM (inactive)
CCOC(=O)c1nnn(-c2nonc2N)c1-c1ccc(F)cc1	16.1 µM
COc1ccc(NC(=O)c2ccc(NCCCN3CCOCC3)c([N+](=O)[O-])c2)cc1	> 30 µM (inactive)
O=c1[nH]nnc2sc3c(c12)CCCC3	> 30 µM (inactive)
COc1ccccc1C(CNc1ccc(S(=O)(=O)N2CCCC2)cc1[N+](=O)[O-])N(C)C (stereo not given)	> 30 µM (inactive)
CCC(CO)Nc1ncc([N+](=O)[O-])cc1C#N (stereo not given)	> 30 µM (inactive)
CCCCSc1nc(N)c(C#N)c(-c2cccs2)c1C#N	> 30 µM (inactive)
Nc1ncnc2c1ncn2[C@@H]1O[C@H](COS(=O)(=O)O)[C@@H](O)[C@H]1O	> 30 µM (inactive)
O=C(CNS(=O)(=O)c1ccccc1)N/N=C/c1ccc(O)cc1	30.2 µM
Cc1nn(CCOc2ccccc2)c(=O)n1-c1ccccc1F	> 30 µM (inactive)
